Measured values: patent publication US12344610B2, “APOL1 inhibitors and methods of use” (Maze Therapeutics, Inc., priority 2022, dated 2025)
Read-outs that look alike come from different tables or passages of the source.

Tests used:
Assay type in all cases: cell-based
Conditions in all cases: geometric mean of at least 2 assay runs, † = single assay run
[1] = system: HEK293 cells overexpressing APOL1 G2; assay: APOL1 G2 HEK293 cell rescue assay (reversal of cell death caused by overexpression of APOL1)
In short: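 Each compound tested in duplicate wells on one plate per run, with values usually the geometric mean across at least two runs on different days, occasionally from one run only. Read-out: concentration giving half-maximal rescue of APOL1 G2 overexpression-induced death of HEK293 cells.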

[2] = system: Trypanosoma brucei Lister 427 VSG221 with APOL1 G0 recombinant protein; assay: APOL1 G0 trypanosome cell rescue assay (Example B5)
In short: (§1)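 Recombinant APOL1 protein, dispensed from a 2 μg/mL stock, and 250 T. brucei per well were co-incubated with test compound (0.4% DMSO) for 20 h. Viability: CellTiter-Glo luminescence.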

[3] = system: Trypanosoma brucei Lister 427 VSG221 with APOL1 G1 recombinant protein; assay: APOL1 G1 trypanosome cell rescue assay (Example B5)
In short: as §1

[4] = system: Trypanosoma brucei Lister 427 VSG221 with APOL1 G2 recombinant protein; assay: APOL1 G2 trypanosome cell rescue assay (Example B5)
In short: as §1

[5] = Trypanosoma brucei, 20 h, read-out: APOL1 G0 Trypanosome Rescue EC50, Trypanosoma brucei Lister 427 VSG221 with APOL1 G0 recombinant protein, 20 hours, CellTiter-Glo
[6] = Trypanosoma brucei, 20 h, read-out: APOL1 G1 Trypanosome Rescue EC50, Trypanosoma brucei Lister 427 VSG221 with APOL1 G1 recombinant protein, 20 hours, CellTiter-Glo
[7] = Trypanosoma brucei, 20 h, read-out: APOL1 G2 Trypanosome Rescue EC50, Trypanosoma brucei Lister 427 VSG221 with APOL1 G2 recombinant protein, 20 hours, CellTiter-Glo
[8] = Homo sapiens, HEK293, HEK293 overexpressing APOL1 G2
[9] = read-out: APOL1 G0 Trypanosome Rescue EC50, Trypanosoma brucei Lister 427 VSG221 with APOL1 G0 recombinant protein, 20 hours, CellTiter-Glo
[10] = read-out: APOL1 G1 Trypanosome Rescue EC50, Trypanosoma brucei Lister 427 VSG221 with APOL1 G1 recombinant protein, 20 hours, CellTiter-Glo
[11] = read-out: APOL1 G2 Trypanosome Rescue EC50, Trypanosoma brucei Lister 427 VSG221 with APOL1 G2 recombinant protein, 20 hours, CellTiter-Glo

Structure (SMILES) | EC50 ([1]; HEK293 overexpressing APOL1 G2) | EC50 [2, 5] | EC50 [3, 6] | EC50 [4, 7] | EC50 [1, 8] | EC50 [2, 9] | EC50 [3, 10] | EC50 [4, 11]
CC(COc1ccc2c(c1)CCC(=O)N2C)N1CCC2(CC1)C(=O)Nc1ccc(Cl)cc12 (single isomer, unassigned) [Compound 200] | 87.2 nM | 185 nM | 192 nM | 72.4 nM | – | – | – | –
CC(COc1ccc2c(c1)CCC(=O)N2C)N1CCC2(CC1)C(=O)Nc1ccc(C#N)cc12 (single isomer, unassigned) [Compound 203, (S) or (R)-1′-{1-[(1-methyl-2-oxo-1,2,3,4-tetrahydroquinolin-6-yl)oxy]propan-2-yl}-2-oxo-1,2-dihydrospiro[indole-3,4′-piperidine]-5-carbonitrile] | 187 nM | 565 nM | 583 nM | 227 nM | – | – | – | –
C[C@@H](COc1ccc(S(C)(=O)=O)c(C(F)F)c1)N1CCC2(CC1)C(=O)Nc1ccc(Cl)cc12 (single isomer, unassigned) [Compound 210] | – | 63.8 nM | 71.1 nM | 21.8 nM | 63.3 nM | – | – | –
C[C@@H](COc1ccc2c(cnn2C)c1)N1CCC2(CC1)C(=O)Nc1ccc(Cl)cc12 (single isomer, unassigned) [Compound 211] | – | 480 nM | 527 nM | 159 nM | 138 nM | – | – | –
C[C@@H](COc1ccc(S(C)(=O)=O)c(C(F)F)c1)N1CCC2(CC1)C(=O)Nc1ccc(C#N)cc12 (single isomer, unassigned) [Compound 212] | – | 69.6 nM | 103 nM | 32.1 nM | 81.4 nM | – | – | –
CS(=O)(=O)c1ccc(OCCN2CCC3(CC2)C(=O)Nc2ccc(Cl)cc23)cc1C(F)CF (single isomer, unassigned) [Compound 218, 5-chloro-1′-(2-{3-[(1S or 1R)-1,2-difluoroethyl]-4-methanesulfonylphenoxy}ethyl)-1,2-dihydrospiro[indole-3,4′-piperidin]-2-one] | – | – | – | – | 25.6 nM | 65.1 nM | 108 nM | 31.6 nM
CS(=O)(=O)c1ccc(OCCN2CCC3(CC2)C(=O)Nc2ccc(Cl)cc23)cc1C(F)CF (single isomer, unassigned) [Compound 219, 5-chloro-1′-(2-{3-[(1R or 1S)-1,2-difluoroethyl]-4-methanesulfonylphenoxy}ethyl)-1,2-dihydrospiro[indole-3,4′-piperidin]-2-one] | 26.3 nM | – | – | – | – | 22.3 nM | 39 nM | 10.5 nM
CS(=O)(=O)c1ccc(OCCN2CCC3(CC2)C(=O)Nc2ccc(C#N)cc23)cc1C(F)CF (single isomer, unassigned) [Compound 221, 1′-(2-{3-[(1S or 1R)-1,2-difluoroethyl]-4-methanesulfonyl-phenoxy}ethyl)-2-oxo-1,2-dihydrospiro [indole-3,4′-piperidine]-5-carbonitrile] | 47.4 nM | 75 nM | 129 nM | 29.5 nM | – | – | – | –
CC(COc1ccc(C2(S(C)(=O)=O)COC2)cc1)N1CCC2(CC1)C(=O)Nc1ccc(C#N)cc12 (single isomer, unassigned) [Compound 263, (S) or (R)-1′-{1-[4-(3-methanesulfonyloxetan-3-yl)phenoxy]propan-2-yl}-2-oxo-1,2-dihydrospiro[indole-3,4′-piperidine]-5-carbonitrile] | 198 nM | 226 nM | 320 nM | 95.3 nM | – | – | – | –
CN1C(=O)C2(CCN(CCOc3ccc(C4(S(C)(=O)=O)CC(O)C4)cc3)CC2)c2cc(C(F)F)ccc21 (single isomer, unassigned) [Compound 278, 5-(difluoromethyl)-1-methyl-1′-(2-{4-[(cis) or (trans)-3-hydroxy-1-methanesulfonylcyclobutyl]phenoxy}ethyl)-1,2-dihydrospiro[indole-3,4′-piperidin]-2-one] | 23 nM | 114 nM | – | – | – | – | 111 nM | 25.5 nM
CS(=O)(=O)C1(c2ccc(OCCN3CCC4(CC3)C(=O)Nc3ccc(C(F)F)cc34)cc2)CC(O)C1 (single isomer, unassigned) [Compound 281, 5-(difluoromethyl)-1′-(2-{4-[(cis) or (trans)-3-hydroxy-1-methanesulfonylcyclobutyl]phenoxy}ethyl)-1,2-dihydrospiro[indole-3,4′-piperidin]-2-one] | 56 nM | 95.9 nM | – | – | – | – | 101 nM | 28.1 nM
CC(O)c1ncc(OCCN2CCC3(CC2)C(=O)Nc2ccc(Cl)cc23)cn1 (single isomer, unassigned) [Compound 285, 5-chloro-1′-[2-({2-[(1S) or (1R)-1-hydroxyethyl]pyrimidin-5-yl}oxy)ethyl]-1,2-dihydrospiro[indole-3,4′-piperidin]-2-one] | – | 547 nM | 749 nM | 212 nM | 200 nM | – | – | –
CC(O)c1ncc(OCCN2CCC3(CC2)C(=O)Nc2ccc(Cl)cc23)cn1 (single isomer, unassigned) [Compound 286, 5-chloro-1′-[2-({2-[(1R) or (1S)-1-hydroxyethyl]pyrimidin-5-yl}oxy)ethyl]-1,2-dihydrospiro[indole-3,4′-piperidin]-2-one] | 181 nM | – | – | – | – | 505 nM | 629 nM | 175 nM
CC(O)c1ncc(OCCN2CCC3(CC2)C(=O)Nc2ccc(C(F)F)cc23)cc1C(F)(F)F (single isomer, unassigned) [Compound 287, 5-(difluoromethyl)-1′-[2-({6-[(1S) or (1R)-1-hydroxyethyl]-5-(trifluoromethyl)pyridin-3-yl}oxy)ethyl]-1,2-dihydrospiro[indole-3,4′-piperidin]-2-one] | – | 37.6 nM | 50 nM | 13.9 nM | 33.5 nM | – | – | –
CC(O)c1ncc(OCCN2CCC3(CC2)C(=O)Nc2ccc(C(F)F)cc23)cc1C(F)(F)F (single isomer, unassigned) [Compound 288, 5-(difluoromethyl)-1′-[2-({6-[(1R) or (1S)-1-hydroxyethyl]-5-(trifluoromethyl)pyridin-3-yl}oxy)ethyl]-1,2-dihydrospiro[indole-3,4′-piperidin]-2-one] | 34.1 nM | – | – | – | – | 26.2 nM | 36.1 nM | 9.75 nM
CC[C@]1(O)C[C@H](N2C(=O)CCc3cc(OCCN4CCC5(CC4)C(=O)Nc4ccc(Cl)cc45)cnc32)C1 (single isomer, unassigned) [Compound 290, 5-chloro-1′-[2-({7-oxo-8-[(trans)-3-ethyl-3-hydroxycyclobutyl]-5,6,7,8-tetrahydro-1,8-naphthyridin-3-yl}oxy)ethyl]-1,2-dihydrospiro[indole-3,4′-piperidin]-2-one] | – | 55.5 nM | 69.2 nM | 24 nM | 18.2 nM | – | – | –
CC(O)c1ncc(OCCN2CCC3(CC2)C(=O)Nc2ccc(Cl)cc23)cc1C(F)(F)F (single isomer, unassigned) [Compound 291, 5-chloro-1′-[2-({6-[(1R) or (1S)-1-hydroxyethyl]-5-(trifluoromethyl)pyridin-3-yl}oxy)ethyl]-1,2-dihydrospiro[indole-3,4′-piperidin]-2-one] | – | 63.1 nM | – | – | 26.4 nM | – | 79.7 nM | 26.5 nM
CC(O)c1ncc(OCCN2CCC3(CC2)C(=O)Nc2ccc(Cl)cc23)cc1C(F)(F)F (single isomer, unassigned) [Compound 292, 5-chloro-1′-[2-({6-[(1S) or (1R)-1-hydroxyethyl]-5-(trifluoromethyl)pyridin-3-yl}oxy)ethyl]-1,2-dihydrospiro[indole-3,4′-piperidin]-2-one] | 23.2 nM | – | – | – | – | 31.6 nM | 39.6 nM | 10.8 nM
O=C1CCc2cc(OCCN3CCC4(CC3)C(=O)Nc3ccc(Cl)cc34)cnc2N1[C@H]1C[C@@](O)(C2CC2)C1 (single isomer, unassigned) [Compound 297, 5-chloro-1′-[2-({7-oxo-8-[(trans)-3-cyclopropyl-3-hydroxycyclobutyl]-5,6,7,8-tetrahydro-1,8-naphthyridin-3-yl}oxy)ethyl]-1,2-dihydrospiro[indole-3,4′-piperidin]-2-one] | – | 72.6 nM | 85.4 nM | 31.5 nM | 31.8 nM | – | – | –
